Activity data for one compound are collected here from ChEMBL document CHEMBL5715949, “Discovery of a selective irreversible BMX inhibitor for prostate cancer” (ACS Chem Biol, 2013).

Calls of active or inactive are those of the source. No cut-off for these calls is given here.

Assay [1] addresses Inhibitor of nuclear factor kappa-B kinase subunit beta (Homo sapiens) (UniProt O14920). Kind of assay: Inhibition of IKK-beta (unknown origin) assessed as remaining activity at 1 uM by Kinome scan method relative to control.
Assay [2] deals with Mitogen-activated protein kinase 4 (Homo sapiens) (UniProt P31152). Kind of assay: Inhibition of ERK4 (unknown origin) assessed as remaining activity at 1 uM by Kinome scan method relative to control.
Sequence of Mitogen-activated protein kinase 4 (Homo sapiens) (P31152 whole entry): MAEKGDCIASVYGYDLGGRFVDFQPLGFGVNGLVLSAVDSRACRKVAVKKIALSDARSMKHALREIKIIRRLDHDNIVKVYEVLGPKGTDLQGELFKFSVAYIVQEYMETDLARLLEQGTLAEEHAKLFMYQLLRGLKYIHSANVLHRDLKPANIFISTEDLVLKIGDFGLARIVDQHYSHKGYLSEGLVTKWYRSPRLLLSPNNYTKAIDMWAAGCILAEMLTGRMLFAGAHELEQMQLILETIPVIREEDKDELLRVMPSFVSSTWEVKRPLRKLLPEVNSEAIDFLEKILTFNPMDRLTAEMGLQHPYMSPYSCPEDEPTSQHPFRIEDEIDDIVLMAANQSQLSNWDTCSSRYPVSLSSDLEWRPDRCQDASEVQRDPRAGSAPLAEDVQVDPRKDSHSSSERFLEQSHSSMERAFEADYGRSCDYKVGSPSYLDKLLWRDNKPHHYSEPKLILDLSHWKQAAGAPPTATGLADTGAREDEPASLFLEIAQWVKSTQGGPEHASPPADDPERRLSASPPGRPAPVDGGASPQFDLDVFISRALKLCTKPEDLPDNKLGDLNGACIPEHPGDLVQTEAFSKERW
In assay [3] the target is Protein kinase C iota type (Homo sapiens) (UniProt P41743). As to the kind of experiment: Inhibition of PRKCI (unknown origin) assessed as remaining activity at 1 uM by Kinome scan method relative to control.
Sequence of Protein kinase C iota type (Homo sapiens) (P41743 whole entry): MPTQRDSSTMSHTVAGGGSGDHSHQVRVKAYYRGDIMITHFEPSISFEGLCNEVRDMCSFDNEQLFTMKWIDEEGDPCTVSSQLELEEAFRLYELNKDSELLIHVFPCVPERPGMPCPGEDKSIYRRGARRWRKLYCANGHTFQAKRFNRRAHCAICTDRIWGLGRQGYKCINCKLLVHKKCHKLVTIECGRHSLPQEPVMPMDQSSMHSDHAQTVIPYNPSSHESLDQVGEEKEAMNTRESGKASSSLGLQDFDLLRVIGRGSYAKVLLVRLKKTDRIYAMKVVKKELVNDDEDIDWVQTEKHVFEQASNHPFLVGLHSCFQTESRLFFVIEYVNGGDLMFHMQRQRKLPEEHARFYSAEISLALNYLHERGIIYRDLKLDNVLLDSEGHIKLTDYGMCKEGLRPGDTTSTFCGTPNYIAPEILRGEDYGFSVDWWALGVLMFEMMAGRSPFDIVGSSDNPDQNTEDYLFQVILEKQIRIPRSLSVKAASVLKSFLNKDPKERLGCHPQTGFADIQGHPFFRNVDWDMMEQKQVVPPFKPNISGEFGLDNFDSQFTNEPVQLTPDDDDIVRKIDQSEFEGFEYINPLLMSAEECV
In assay [4] the target is Ephrin type-B receptor 2 (Homo sapiens) (UniProt P29323). Kind of assay: Inhibition of EPHB2 (unknown origin) assessed as remaining activity at 1 uM by Kinome scan method relative to control.
Sequence of Ephrin type-B receptor 2 (Homo sapiens) (P29323 whole entry): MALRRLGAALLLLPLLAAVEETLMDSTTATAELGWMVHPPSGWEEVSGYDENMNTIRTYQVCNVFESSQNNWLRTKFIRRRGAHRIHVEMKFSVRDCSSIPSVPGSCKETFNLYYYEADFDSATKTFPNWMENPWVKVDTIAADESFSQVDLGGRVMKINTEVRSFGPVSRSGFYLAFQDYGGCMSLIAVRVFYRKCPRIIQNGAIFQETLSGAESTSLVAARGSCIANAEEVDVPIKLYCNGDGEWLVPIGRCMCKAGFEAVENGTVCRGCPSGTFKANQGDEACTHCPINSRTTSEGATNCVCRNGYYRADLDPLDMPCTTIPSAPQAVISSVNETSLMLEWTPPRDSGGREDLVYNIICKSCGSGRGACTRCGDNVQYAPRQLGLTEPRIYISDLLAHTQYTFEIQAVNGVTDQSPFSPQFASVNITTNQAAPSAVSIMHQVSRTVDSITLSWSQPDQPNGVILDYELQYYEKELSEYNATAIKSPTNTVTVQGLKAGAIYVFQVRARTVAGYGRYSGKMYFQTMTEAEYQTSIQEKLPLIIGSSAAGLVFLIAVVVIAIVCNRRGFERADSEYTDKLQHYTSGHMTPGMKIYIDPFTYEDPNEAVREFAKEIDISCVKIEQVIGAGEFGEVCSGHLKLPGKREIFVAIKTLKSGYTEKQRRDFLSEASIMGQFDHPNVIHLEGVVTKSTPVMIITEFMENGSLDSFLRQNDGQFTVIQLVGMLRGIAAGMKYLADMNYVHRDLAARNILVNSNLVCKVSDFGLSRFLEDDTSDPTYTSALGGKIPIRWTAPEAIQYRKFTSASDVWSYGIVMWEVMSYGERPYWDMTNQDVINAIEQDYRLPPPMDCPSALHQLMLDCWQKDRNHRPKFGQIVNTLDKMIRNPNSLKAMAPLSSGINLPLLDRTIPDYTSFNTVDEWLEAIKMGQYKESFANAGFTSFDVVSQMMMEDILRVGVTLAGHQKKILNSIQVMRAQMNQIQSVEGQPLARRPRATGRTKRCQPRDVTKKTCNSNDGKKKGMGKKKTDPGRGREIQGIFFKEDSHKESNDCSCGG
For assay [5], the target named is Tyrosine-protein kinase TXK (Homo sapiens) (UniProt P42681). Kind of assay: Inhibition of TXK (unknown origin) assessed as remaining activity at 1 uM by Kinome scan method relative to control.
Sequence of Tyrosine-protein kinase TXK (Homo sapiens) (P42681 whole entry): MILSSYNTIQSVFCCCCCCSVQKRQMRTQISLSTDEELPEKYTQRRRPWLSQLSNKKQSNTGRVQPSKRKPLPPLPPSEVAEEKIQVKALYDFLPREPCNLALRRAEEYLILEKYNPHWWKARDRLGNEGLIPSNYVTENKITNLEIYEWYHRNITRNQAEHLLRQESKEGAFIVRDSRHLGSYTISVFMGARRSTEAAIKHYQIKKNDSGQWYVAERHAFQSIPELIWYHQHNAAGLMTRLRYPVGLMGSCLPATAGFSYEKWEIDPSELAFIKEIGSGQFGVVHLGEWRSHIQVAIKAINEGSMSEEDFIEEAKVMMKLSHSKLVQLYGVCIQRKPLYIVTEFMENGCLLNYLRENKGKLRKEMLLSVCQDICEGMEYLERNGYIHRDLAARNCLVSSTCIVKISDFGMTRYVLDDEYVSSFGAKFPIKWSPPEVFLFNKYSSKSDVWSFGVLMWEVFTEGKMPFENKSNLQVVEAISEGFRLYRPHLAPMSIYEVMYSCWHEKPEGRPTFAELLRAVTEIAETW
For assay [6], the target named is Mitogen-activated protein kinase 8 (Homo sapiens) (UniProt P45983). As to the kind of experiment: Inhibition of JNK1 (unknown origin) assessed as remaining activity at 1 uM by Kinome scan method relative to control.
Assay [7] has as its target Serine/threonine-protein kinase Nek3 (Homo sapiens) (UniProt P51956). As to the kind of experiment: Inhibition of NEK3 (unknown origin) assessed as remaining activity at 1 uM by Kinome scan method relative to control.
Assay [8] deals with Tyrosine-protein kinase CSK (Homo sapiens) (UniProt P41240). As to the kind of experiment: Inhibition of CSK (unknown origin) assessed as remaining activity at 1 uM by Kinome scan method relative to control.
Sequence of Tyrosine-protein kinase CSK (Homo sapiens) (P41240 2-450 limits assumed): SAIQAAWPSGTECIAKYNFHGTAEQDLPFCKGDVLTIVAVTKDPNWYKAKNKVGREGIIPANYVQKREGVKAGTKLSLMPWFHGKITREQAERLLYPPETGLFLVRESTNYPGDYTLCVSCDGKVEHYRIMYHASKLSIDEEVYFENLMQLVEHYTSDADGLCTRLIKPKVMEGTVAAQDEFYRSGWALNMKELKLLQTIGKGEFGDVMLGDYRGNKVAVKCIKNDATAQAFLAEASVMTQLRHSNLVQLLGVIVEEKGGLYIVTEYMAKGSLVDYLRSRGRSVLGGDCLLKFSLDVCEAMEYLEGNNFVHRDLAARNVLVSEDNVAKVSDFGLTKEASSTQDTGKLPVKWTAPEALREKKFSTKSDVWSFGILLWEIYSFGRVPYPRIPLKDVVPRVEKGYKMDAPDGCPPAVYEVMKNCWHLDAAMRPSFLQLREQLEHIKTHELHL
Assay [9] addresses Membrane-associated tyrosine- and threonine-specific cdc2-inhibitory kinase (Homo sapiens) (UniProt Q99640). Kind of assay: Inhibition of PKMYT1 (unknown origin) assessed as remaining activity at 1 uM by Kinome scan method relative to control.
Assay [10] deals with Tyrosine-protein kinase ABL1 (Homo sapiens), P00519 [F317I]. As to the kind of experiment: Inhibition of ABL1 F317I mutant (unknown origin) assessed as remaining activity at 1 uM by Kinome scan method relative to control.
In assay [11] the target is Myotonin-protein kinase (Homo sapiens) (UniProt Q09013). Kind of assay: Inhibition of DMPK (unknown origin) assessed as remaining activity at 1 uM by Kinome scan method relative to control.
Assay [12] has as its system RV-1. As to the kind of experiment: Down regulation of BMX protein expression in human RV-1 cells expressing wild type BMX at 5 uM incubated for 72 hrs by western blot analysis. The assay is classed as functional, cell-based. (Immunoblotting shows a protein as a band on a membrane.)
The target in assay [13] is Mitogen-activated protein kinase 14 (Homo sapiens) (UniProt Q16539). As to the kind of experiment: Inhibition of P38alpha (unknown origin) assessed as remaining activity at 1 uM by Kinome scan method relative to control.
Sequence of Mitogen-activated protein kinase 14 (Homo sapiens) (Q16539 whole entry): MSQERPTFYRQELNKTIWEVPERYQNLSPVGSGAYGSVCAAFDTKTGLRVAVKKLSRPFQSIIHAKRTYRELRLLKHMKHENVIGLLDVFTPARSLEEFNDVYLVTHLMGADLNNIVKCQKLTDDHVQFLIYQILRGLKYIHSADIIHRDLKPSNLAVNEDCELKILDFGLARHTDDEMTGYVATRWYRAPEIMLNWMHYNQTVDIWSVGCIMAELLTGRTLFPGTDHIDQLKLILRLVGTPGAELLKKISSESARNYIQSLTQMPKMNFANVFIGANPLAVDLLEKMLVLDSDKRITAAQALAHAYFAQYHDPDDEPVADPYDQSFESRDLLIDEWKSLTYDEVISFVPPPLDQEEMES
Assay [14] deals with RV-1. As to the kind of experiment: Antiproliferative activity against human RV-1 cells assessed as reduction in cell viability at 500 to 2500 nM incubated for 5 days in presence of Torin1 by CellTiter-Glo assay. The following applies: dose 500-2500 nM, time 5.0 day. The assay is classed as functional, cell-based.

Sequence of Inhibitor of nuclear factor kappa-B kinase subunit beta (Homo sapiens) (O14920 whole entry): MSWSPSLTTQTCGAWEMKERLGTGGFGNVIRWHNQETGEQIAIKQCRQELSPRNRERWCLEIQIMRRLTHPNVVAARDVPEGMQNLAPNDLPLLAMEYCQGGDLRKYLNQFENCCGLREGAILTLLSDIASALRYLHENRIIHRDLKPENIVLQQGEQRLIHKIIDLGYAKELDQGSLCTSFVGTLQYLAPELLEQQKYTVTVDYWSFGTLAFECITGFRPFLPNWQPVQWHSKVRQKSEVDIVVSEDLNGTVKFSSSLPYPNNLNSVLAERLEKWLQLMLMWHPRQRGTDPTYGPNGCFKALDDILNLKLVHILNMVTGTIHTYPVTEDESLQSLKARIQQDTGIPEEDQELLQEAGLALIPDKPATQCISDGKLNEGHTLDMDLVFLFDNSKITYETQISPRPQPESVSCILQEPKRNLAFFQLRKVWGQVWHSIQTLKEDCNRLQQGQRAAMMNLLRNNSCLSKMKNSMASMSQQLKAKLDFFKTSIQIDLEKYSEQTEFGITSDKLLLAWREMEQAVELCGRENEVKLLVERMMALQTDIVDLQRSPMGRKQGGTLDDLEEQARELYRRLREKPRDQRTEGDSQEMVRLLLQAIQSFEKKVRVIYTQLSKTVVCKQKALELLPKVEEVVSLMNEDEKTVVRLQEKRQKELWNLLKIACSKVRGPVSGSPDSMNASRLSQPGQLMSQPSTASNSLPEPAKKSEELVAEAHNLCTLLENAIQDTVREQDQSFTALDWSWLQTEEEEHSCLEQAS
Sequence of Membrane-associated tyrosine- and threonine-specific cdc2-inhibitory kinase (Homo sapiens) (Q99640 whole entry): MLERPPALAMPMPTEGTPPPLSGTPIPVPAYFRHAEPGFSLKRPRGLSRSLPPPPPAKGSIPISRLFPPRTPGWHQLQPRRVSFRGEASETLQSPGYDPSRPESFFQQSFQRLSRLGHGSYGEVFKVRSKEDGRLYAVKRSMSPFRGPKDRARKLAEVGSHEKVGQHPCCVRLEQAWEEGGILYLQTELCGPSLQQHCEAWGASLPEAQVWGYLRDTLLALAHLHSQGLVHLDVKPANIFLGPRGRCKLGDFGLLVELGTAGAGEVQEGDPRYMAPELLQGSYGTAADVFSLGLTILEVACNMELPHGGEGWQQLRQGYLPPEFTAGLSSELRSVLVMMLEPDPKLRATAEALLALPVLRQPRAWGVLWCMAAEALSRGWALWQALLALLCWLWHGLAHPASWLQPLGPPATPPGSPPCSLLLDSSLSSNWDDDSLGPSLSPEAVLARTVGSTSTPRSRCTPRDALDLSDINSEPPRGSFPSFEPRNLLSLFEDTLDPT

As for `C=CC(=O)Nc1cc(-n2c(=O)ccc3cnc4ccc(-c5ccc(NS(C)(=O)=O)cc5)cc4c32)ccc1C`, the Activity came to 93% in [1]; 91% in [2]; 84% in assay [3]; 80% in assay [4]; 25% in assay [5]; 93% in [6]. Moreover, the Activity came out at 98% in assay [7]; 99% in [8]; 77% in assay [9]; 81% in [10]; 91% in assay [11]; 98% in [13]. In addition, the outcome in the assay on RV-1 [12] and with RV-1 [14] was Active.
